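Method: 48-hour compound exposure of cells in 96-well plates, five concentrations, linear interpolation of endpoints. GI50: concentration for 50% inhibition of growth. TGI: concentration producing complete growth inhibition.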
Assays:
Assay in all cases: DTP human tumour cell line panel, 48 h
CAKI-1 renal = tested on: CAKI-1 renal
EKVX NSCLC = tested on: EKVX NSCLC
OVCAR-3 ovarian = tested on: OVCAR-3 ovarian
OVCAR-5 ovarian = tested on: OVCAR-5 ovarian
SF-295 CNS = tested on: SF-295 CNS
SN12C renal = tested on: SN12C renal
UACC-62 melanoma = tested on: UACC-62 melanoma
A549 NSCLC = tested on: A549 NSCLC
HCC-2998 colon = tested on: HCC-2998 colon
RPMI-8226 leukemia = tested on: RPMI-8226 leukemia

| Structure (SMILES) | GI50 (CAKI-1 renal) [µM] | TGI (CAKI-1 renal) [µM] | GI50 (EKVX NSCLC) [µM] | TGI (EKVX NSCLC) [µM] | GI50 (OVCAR-3 ovarian) [µM] | TGI (OVCAR-3 ovarian) [µM] | GI50 (OVCAR-5 ovarian) [µM] | TGI (OVCAR-5 ovarian) [µM] | GI50 (SF-295 CNS) [µM] | TGI (SF-295 CNS) [µM] | GI50 (SN12C renal) [µM] | TGI (SN12C renal) [µM] | GI50 (UACC-62 melanoma) [µM] | TGI (UACC-62 melanoma) [µM] | TGI (A549 NSCLC) [µM] | TGI (HCC-2998 colon) [µM] | TGI (RPMI-8226 leukemia) [µM] | GI50 (A549 NSCLC) [µM] | GI50 (HCC-2998 colon) [µM] | GI50 (RPMI-8226 leukemia) [µM] |
| --- | --- | --- | --- | --- | --- | --- | --- | --- | --- | --- | --- | --- | --- | --- | --- | --- | --- | --- | --- | --- |
| COc1cc2cc(Oc3ccc(NC(=O)Nc4cccc(C(F)(F)F)c4)cc3)c(C)nc2cc1OCCN1CCCCC1 | 1.4 | 2.82 | 1.51 | 2.92 | 1.71 | 3.15 | 1.87 | 3.29 | 1.8 | 3.24 | 1.66 | 3.15 | 1.75 | 3.15 |  |  |  |  |  |  |
| N#Cc1ccccc1NC(=O)C(=O)C(C(=O)c1ccccc1-c1ccccc1)C1OC(=O)c2ccccc21 (stereo not drawn) |  |  |  | 36 |  | 32.7 |  | 33 |  | 58.3 |  |  |  | 33.8 | > 100 | 29.2 | 79.7 |  |  |  |
| COc1ccc(/C(=C/c2cc(OC)c(OC)c(OC)c2)[N+](=O)[O-])cc1 |  |  | 1.96 | 4.32 | 1.66 | 3.14 | 2.01 | 4.09 | 2.09 | 5.34 | 1.6 | 3.24 | 1.56 | 3.07 | 10.3 | 3.28 | 4.77 | 3 | 1.81 | 1.7 |
| COc1cc2c3c(n(C)c(=O)c2cc1OC)-c1cc2c(cc1/C3=C\CCCCN)OCO2 | 4.41 | 17.1 | 18.4 | 57.2 | 16.9 | 33.4 | 15.5 | 35.4 | 3.56 | 15.2 | 9.39 | 24.4 | 12.5 | 37.8 | 27.4 |  | 24.7 | 6.26 |  | 4.44 |
| COc1cc2c(cc1OC)C(=O)C(Br)CC2 (stereo not drawn) | 3.56 | 12.4 |  |  | 2.5 | 6.88 | 5.47 | 18.2 | 14.3 | 28.4 | 3.49 | 12.8 | 2.01 | 4.55 | 27.7 | 24.5 |  | 11.4 | 11.5 |  |
| COc1cccc(NC(=O)c2sc3nc4c(cc3c2N)CCCC4)c1 | 0.503 | 66.3 |  |  | 0.329 | 2.38 | 3.31 | > 100 | 0.481 | 14 | 3.98 | > 100 | 0.391 | > 100 | > 100 | > 100 | 78.3 | 0.58 | 1.6 | 0.396 |
| O=C(O)CN(c1ccc(Cl)cc1)S(=O)(=O)c1ccccc1 |  | > 100 |  | > 100 |  | > 100 |  | > 100 |  | > 100 |  | > 100 |  | > 100 | > 100 |  | > 100 |  |  |  |
| CC(Cc1ccc(Cl)cc1Cl)NO (stereo not drawn) |  | > 100 |  | > 100 |  | > 100 |  | > 100 |  | > 100 |  | > 100 |  | > 100 | > 100 |  | > 100 |  |  |  |
| CC12OC(C(=O)C13CC3)C1C(=O)c3ccccc3C(=O)C12 (stereo not drawn) | 21.6 | 38.5 | 4.48 | 38.4 |  |  | 47.4 | > 100 |  |  |  |  |  |  | > 100 | > 100 |  | 37.2 | 36.3 |  |
| COC1C=C(Nc2cccc(Cl)c2)C(=O)C1 (stereo not drawn) |  | > 100 |  | 55.3 |  | > 100 |  | > 100 |  | > 100 |  | > 100 |  | > 100 | 41.2 | > 100 |  |  |  |  |
| COc1c(OC(C)=O)ccc(/C=C2\N=C(C)OC2=O)c1[N+](=O)[O-] |  | > 100 |  |  |  |  |  | > 100 |  | > 100 |  | > 100 |  | > 100 | > 100 | > 100 | > 100 |  |  |  |
| COC(=O)Nc1nc2ccc(C(=O)c3ccc[nH]3)cc2[nH]1 |  | > 100 |  | > 100 |  |  |  | > 100 |  | > 100 |  | > 100 |  | > 100 | > 100 | > 100 | > 100 |  |  |  |
| Cc1ccc2c(c1)NC(c1ccc(C(=O)O)cc1)c1cccn1-2 (stereo not drawn) |  | 72.7 |  | > 100 |  | > 100 |  | > 100 |  | > 100 |  | > 100 |  | > 100 | > 100 |  | > 100 |  |  |  |
| O=[N+]([O-])c1ccc(N/N=C\c2cc(Cl)ccc2O)nc1 | 0.278 | 1.07 | 8.05 | > 100 | 0.42 | 12.1 | 8.88 | > 100 | 2.15 | 11.7 | 2.99 | > 100 | 3.18 | 34.1 | 16.1 |  | > 100 | 2.79 |  | 0.987 |
| Cn1cc(-c2ccc(=O)n(Cc3cccc(-c4ncc(OCCN5CCOCC5)cn4)c3)n2)cn1 | > 79.7 | > 100 |  |  | 58 | > 100 | > 100 | > 100 | 0.49 | > 100 | > 69.4 | > 100 | 48.7 | > 100 | > 100 | > 100 | > 100 | 71.7 | > 100 | 34 |
| C1CCC([PH+](C2CCCCC2)C2CCCCC2[PH+](C2CCCCC2)C2CCCCC2)CC1.[Au].[CH-]1CCCCC1C1CCCC[N-]1 (stereo not drawn) |  |  |  |  | 0.286 | 1.1 | 0.377 | 1.79 | 0.256 | 0.901 |  |  | 0.254 | 0.979 |  |  | > 100 |  |  | 0.132 |
| CC(C)=CC(=O)CC(=O)C(=O)Nc1ccc(C)c(C)c1 |  | > 100 |  | > 100 |  | > 100 |  |  |  | > 100 |  | > 100 |  | > 100 | > 100 |  | > 100 |  |  |  |
| CC1=C(C(=O)Nc2ccccc2)C(c2ccc3c(c2)OCO3)C(C(=O)Nc2ccccc2)=C(C)N1 |  | > 100 |  | > 100 |  | > 100 |  |  |  | > 100 |  | > 100 |  | > 100 | > 100 | > 100 | 79.4 |  |  |  |
